Reference: patent US10323019B2, “Pyrazolylaminobenzimidazole derivatives as JAK inhibitors” (Eli Lilly and Company, priority 2016, dated 2019)
Read-outs that look alike come from different tables or passages of the source.

How the values were obtained:
[1] = target: JAK1 (Homo sapiens (Human), UniProt P23458); assay: AlphaScreen SureFire p-STAT3-(p-Tyr705)-IL6-TF-1-JAK1 cell-based assay; details: TF-1 cells, IL6 30 ng/mL, pSTAT3
Description: AlphaScreen SureFire Protocol p-STAT3-(p-Tyr705)-IL6-TF-1-JAK1 Cell-Based Assay
The JAK1 cell based assay described below is used to determine the JAK1 cellular potency of test compounds.
Cell preparation: Starve TF-1 cells in DMEM medium with 0.5% […] and 1× Pen/Strep at 37° C. Plate 100K cells per well in BD 96 well black plates with clear bottoms. Maintain the plates at RT for 30-60 minutes before incubating overnight at 37° C., and 5% CO2. Count cells using Vi-Cell counter, using a cell suspension at […] and plated 100 μL/well in […] Biocoat plates (Catalog #354640).
Test compound preparation and treatment: Prepare compounds at 1:3 serial dilutions in DMSO and further dilute into the medium. Test compounds in a range of 10 point concentrations from 20,000 to 1 nM. Add diluted compound to corresponding cell plates. Incubate the plates at 37° C. for 20 min. Add IL6 solution at the final concentration 30 ng/mL to corresponding cell plates and continue to incubate at 37° C. for 30 min. Remove media and add 50 μL 1× lysis buffer to each well.
pSTAT3 detection: Perform the following steps sequentially: make acceptor mix (activation buffer/reaction buffer/acceptor beads); transfer 4 μL lysate from 96 well plates to 384 well-Proxiplates; add 5 μL acceptor mix to 384 proxiplate plate(s) and seal plates with aluminum seal; shake 1-2 minutes on plate shaker; incubate plate at RT for 2 hr with gentle shaking; make donor mix (donor beads in dilution buffer); add 2 μL donor mix to assay plates; seal plates with aluminum seal; shake 1-2 minutes on plate shaker; incubate at RT for 2 hr with gentle shaking; read plate with Envision; protocol AlphaScreen Surefire 384.

[2] = target: JAK1 (Rattus norvegicus, UniProt G3V9W2); assay: Rat PK/PD assay: rat whole blood ex vivo JAK1 activity (pSTAT3); assay type: in vivo; details: 30 mpk oral
JAK1 (Rattus norvegicus, UniProt G3V9W2), sequence (G3V9W2 1-1153): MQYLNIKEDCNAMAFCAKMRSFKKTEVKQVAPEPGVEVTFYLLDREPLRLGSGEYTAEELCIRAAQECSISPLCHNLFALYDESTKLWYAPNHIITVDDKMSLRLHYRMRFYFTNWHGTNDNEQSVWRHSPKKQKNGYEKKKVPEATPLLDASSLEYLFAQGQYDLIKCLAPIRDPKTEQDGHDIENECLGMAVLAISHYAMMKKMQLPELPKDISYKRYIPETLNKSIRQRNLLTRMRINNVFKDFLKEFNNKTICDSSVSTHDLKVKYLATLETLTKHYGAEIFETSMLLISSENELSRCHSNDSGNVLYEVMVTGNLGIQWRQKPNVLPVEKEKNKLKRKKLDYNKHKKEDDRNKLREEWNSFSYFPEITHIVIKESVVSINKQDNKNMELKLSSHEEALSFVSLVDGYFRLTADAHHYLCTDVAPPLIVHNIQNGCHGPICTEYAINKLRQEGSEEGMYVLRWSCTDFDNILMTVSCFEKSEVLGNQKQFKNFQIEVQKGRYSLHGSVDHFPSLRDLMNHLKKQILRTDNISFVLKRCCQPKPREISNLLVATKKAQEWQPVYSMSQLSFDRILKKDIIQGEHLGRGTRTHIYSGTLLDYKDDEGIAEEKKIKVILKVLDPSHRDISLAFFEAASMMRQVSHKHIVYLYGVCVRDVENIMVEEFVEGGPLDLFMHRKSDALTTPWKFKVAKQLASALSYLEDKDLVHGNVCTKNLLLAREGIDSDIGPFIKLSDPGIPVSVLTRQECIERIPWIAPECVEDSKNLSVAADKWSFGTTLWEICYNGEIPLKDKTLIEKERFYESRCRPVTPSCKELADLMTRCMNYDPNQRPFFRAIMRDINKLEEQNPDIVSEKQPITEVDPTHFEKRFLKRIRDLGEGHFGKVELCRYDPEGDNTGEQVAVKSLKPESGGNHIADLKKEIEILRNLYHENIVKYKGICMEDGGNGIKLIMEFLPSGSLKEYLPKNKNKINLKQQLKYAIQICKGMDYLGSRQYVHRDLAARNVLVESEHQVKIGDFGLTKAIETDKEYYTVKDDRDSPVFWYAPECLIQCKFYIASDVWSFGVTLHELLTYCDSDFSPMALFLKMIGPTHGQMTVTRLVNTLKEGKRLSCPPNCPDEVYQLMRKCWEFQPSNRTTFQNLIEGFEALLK
Description: (§1) Male Wistar rats, 265-285 grams (Charles River) were used for oral gavage dosing. Dose the animals (Oral gavage) at 1.82 mL/kg (0.5 mL per 275 grams). Formulate the compounds in 1% HEC vehicle containing 0.25% Tween 80 and 0.05% antifoam with 1.1 molar equivalent of methanesulfonic acid to form an in situ salt. Formulate compounds once per week, and store at 4° C. At various time points, obtain rat whole blood via tail vain bleeding in Multivette 600 μl EDTA blood collection tubes (cat#151671100PK100, Sarstedt Inc) and use for ex vivo JAK1 and JAK2 assay. Aliquot 100 ul of blood from each rat into a 96-well round bottom plate. Stimulate whole blood by recombinant IL-6 ([…], and recombinant mouse GM-CSF (cat#415-ML, lot#, R&D) for 12 min at rt. After cytokine stimulation, add whole blood into Lyse/fix (cat#558049, lot#, BD) in minitube rack; mix well 5×. Incubate 10 min at rt. Spin minitube rack at 600 g for 4 min. Aspirate with 12-channel manifold. Transfer contents of minitube rack to 96 well round-bottom plates. Spin down the cells at 3000 rpm for 1 min and discard the supernatant. Mix the cells in the well with 100 ul ice-cold MeOH and incubated on ice for 30 min. Add 150 ul PBS+2% FCS into each well and spin down at 3000 rpm, 2 min. Wash cells with 2× of 250 ul PBS+2% FCS. For cell surface and intracellular staining, mix all antibodies and add into each well and incubate 1 hr at rt in dark. The antibodies used for staining are as following: pSTAT3, Alexa Fluor 647 (cat#4324s, lot, Cell Signaling); pSTAT5, Alexa Fluor 488 (cat#3939s, lot#, Cell Signaling), anti-rat CD4, V450 (cat#561579, lot#. BD); anti-rat CD11b, Percp eFluor710 (cat#12-0110-82, lot#, eBioscience) After staining cells with Abs, wash the plates twice with PBS+2% FCS and finally re-suspend in the same 150 ul of solution. Assess cell viability by Viability Dye 780 (cat#65-0865-14, lot#, eBioscience). Perform the cytometry assay using FORTESSA.

[3] = target: JAK2 (Rattus norvegicus (Rat), UniProt Q62689); assay: Rat PK/PD assay: rat whole blood ex vivo JAK2 activity (pSTAT5); assay type: in vivo; details: 30 mpk oral
JAK2, sequence (Q62689 whole entry): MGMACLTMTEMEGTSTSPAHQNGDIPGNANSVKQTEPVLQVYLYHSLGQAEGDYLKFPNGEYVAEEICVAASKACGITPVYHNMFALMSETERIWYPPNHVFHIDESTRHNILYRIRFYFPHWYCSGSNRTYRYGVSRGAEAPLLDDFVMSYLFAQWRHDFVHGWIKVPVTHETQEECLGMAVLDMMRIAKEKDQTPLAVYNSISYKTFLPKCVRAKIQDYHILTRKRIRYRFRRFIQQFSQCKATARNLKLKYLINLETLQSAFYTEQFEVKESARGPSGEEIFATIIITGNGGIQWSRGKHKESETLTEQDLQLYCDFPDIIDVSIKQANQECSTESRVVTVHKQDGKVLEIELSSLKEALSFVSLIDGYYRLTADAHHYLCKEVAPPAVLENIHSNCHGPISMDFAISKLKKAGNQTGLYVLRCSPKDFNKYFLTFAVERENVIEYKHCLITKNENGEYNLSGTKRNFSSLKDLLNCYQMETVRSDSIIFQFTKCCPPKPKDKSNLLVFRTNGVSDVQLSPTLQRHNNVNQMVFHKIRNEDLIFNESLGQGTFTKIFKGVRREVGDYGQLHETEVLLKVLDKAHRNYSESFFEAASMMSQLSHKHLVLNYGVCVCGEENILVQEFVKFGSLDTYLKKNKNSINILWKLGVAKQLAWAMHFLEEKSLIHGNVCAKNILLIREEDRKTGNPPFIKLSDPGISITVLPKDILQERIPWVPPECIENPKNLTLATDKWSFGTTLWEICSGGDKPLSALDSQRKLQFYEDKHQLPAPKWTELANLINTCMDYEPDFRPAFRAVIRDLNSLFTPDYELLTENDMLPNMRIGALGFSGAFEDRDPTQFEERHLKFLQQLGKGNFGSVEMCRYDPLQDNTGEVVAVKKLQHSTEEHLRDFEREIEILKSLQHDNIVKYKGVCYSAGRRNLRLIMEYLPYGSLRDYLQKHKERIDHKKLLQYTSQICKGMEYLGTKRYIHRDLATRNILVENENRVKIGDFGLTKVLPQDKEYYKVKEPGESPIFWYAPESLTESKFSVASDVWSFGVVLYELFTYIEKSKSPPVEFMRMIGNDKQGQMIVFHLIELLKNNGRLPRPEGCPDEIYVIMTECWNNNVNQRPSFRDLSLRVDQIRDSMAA
Description: as §1

[4] = system: paw swelling in Lewis rats; assay: Rat collagen-induced arthritis (CIA) model; assay type: in vivo
Description: Rat Collagen-Induced Arthritis (CIA) Model
This protocol uses Lewis rats (weight 150-175 grams) from Charles River. On day 0, anesthetize rats with Isoflurane. On day 1, immunize intradermally with collagen emulsion in two sites on the lower lumbar region, above the base of the tail. Dose volume is a minimum of 0.4 mL per injection site. On day 8, anesthetize rats with Isoflurane and immunize intradermally with collagen emulsion in two sites on the lower lumbar region, above the base of the tail. Enroll rats into treatment groups on day 12, based on inflammation (redness and/or swelling) in their hind paws. Randomize animals for Treatment Phase based on ankle measurement values and body weight using block randomization allocation tool. Record ankle swelling on days 1, 8, and 11 and then three times per week following enrollment up to and including the day of necropsy. Dose compounds orally once a day starting on day 12 (after randomization) up to day 25. The compounds of Examples 6 and 7 were evaluated in the protocol essentially as described above.

JAK1 (Homo sapiens (Human), UniProt P23458), sequence (P23458 whole entry): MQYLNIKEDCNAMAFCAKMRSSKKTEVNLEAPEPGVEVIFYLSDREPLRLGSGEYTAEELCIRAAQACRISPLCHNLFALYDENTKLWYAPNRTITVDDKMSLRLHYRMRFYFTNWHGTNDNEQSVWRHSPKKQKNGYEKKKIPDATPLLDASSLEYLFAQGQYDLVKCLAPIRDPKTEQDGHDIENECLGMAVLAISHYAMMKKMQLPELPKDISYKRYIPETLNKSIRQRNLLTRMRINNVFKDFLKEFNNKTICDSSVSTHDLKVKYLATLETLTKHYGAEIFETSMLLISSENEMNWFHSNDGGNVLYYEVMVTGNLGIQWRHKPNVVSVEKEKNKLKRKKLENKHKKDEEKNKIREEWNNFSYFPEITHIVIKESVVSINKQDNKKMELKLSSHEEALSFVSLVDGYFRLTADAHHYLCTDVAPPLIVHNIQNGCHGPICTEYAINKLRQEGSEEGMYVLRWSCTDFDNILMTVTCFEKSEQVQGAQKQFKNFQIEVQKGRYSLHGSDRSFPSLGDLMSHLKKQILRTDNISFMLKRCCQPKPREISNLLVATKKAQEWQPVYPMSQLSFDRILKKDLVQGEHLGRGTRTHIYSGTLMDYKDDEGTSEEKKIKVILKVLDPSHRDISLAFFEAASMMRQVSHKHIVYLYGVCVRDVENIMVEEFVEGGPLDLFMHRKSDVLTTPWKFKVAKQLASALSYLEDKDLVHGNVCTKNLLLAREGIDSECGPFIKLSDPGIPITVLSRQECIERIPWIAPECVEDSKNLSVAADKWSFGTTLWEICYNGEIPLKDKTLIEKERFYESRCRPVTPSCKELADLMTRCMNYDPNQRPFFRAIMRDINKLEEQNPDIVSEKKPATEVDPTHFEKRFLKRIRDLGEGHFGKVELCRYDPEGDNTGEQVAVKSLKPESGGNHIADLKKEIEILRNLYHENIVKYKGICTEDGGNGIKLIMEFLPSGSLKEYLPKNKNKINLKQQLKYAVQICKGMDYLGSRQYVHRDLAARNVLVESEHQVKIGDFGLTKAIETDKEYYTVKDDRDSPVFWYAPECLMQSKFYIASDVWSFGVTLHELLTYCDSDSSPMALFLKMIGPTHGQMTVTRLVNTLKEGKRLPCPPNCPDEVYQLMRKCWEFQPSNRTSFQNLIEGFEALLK

COc1cc(Nc2cc(O[C@H]3CC[C@@H](NC[C@@H](O)C(F)(F)F)CC3)cc3c2ncn3C)nn1C [Example 6, (2R)-1,1,1-Trifluoro-3-{[cis-4-({4-[(5-methoxy-1-methyl-1H-pyrazol-3-yl)amino]-1-methyl-1H-benzimidazol-6-yl}oxy)cyclohexyl]amino}propan-2-ol]
IC50 [1]: 0.168 ± 0.09 nM
inhibition at 30 mg/kg ([2]; 2 hr post dosing, read-out: JAK1 inhibition 2 hr post dosing): 83.5%
inhibition at 30 mg/kg ([2]; 7 hr post dosing, read-out: JAK1 inhibition 7 hr post dosing): 75.4%
inhibition at 30 mg/kg ([3]; 2 hr post dosing, read-out: JAK2 inhibition 2 hr post dosing): 17.7%
inhibition at 30 mg/kg ([3]; 7 hr post dosing, read-out: JAK2 inhibition 7 hr post dosing): 17.4%
Rat paw swelling % inhibition at 3 mpk ([4]; 3 mpk oral once a day day 12 to 25, naïve rat as 100% inhibition): 12%
Rat paw swelling % inhibition at 10 mpk ([4]; 10 mpk oral once a day day 12 to 25, naïve rat as 100% inhibition): 47%
Rat paw swelling % inhibition at 30 mpk ([4]; 30 mpk oral once a day day 12 to 25, naïve rat as 100% inhibition): 79%
